Experimental data from patent publication US10750743B2, “Pyridazinone herbicides” (E.I. DU PONT DE NEMOURS AND COMPANY, priority 2015, dated 2020).

Assays:
Assay type in all cases: in vivo
[1] = test system: ragweed (common ragweed, Ambrosia elatior); experiment: Test A preemergence, directed soil spray, visual injury rating; conditions: Ambrosia artemisiifolia, pre-emergence, 240 h, 0 is no effect, 100 is complete control, read-out: Plant response rating (0 to 100 scale), Ragweed; for pest or weed control at 31 g/ha: 31 g ai/ha; for pest or weed control at 125 g/ha: 125 g ai/ha
Method in brief: (§1)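 Seeds sown in a loam soil–sand blend received a directed preemergence soil spray of test chemical in a non-phytotoxic solvent mixture with surfactant. Postemergence plants were sprayed at 2 to 10 cm, one- to two-leaf stage. After approximately 10 d in greenhouse, injury was visually rated 0 (no effect) to 100 (complete control) against untreated controls.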

kochia (Kochia scoparia) [2] = experiment: as above; conditions: Bassia scoparia, pre-emergence, 240 h, 0 is no effect, 100 is complete control, read-out: Plant response rating (0 to 100 scale), Kochia; for pest or weed control at 31 g/ha: 31 g ai/ha; for pest or weed control at 125 g/ha: 125 g ai/ha
Method in brief: as §1

[3] = test system: foxtail, giant (giant foxtail, Setaria faberii); experiment: as above; conditions: Setaria faberi, pre-emergence, 240 h, 0 is no effect, 100 is complete control, read-out: Plant response rating (0 to 100 scale), Foxtail, Giant; for pest or weed control at 31 g/ha: 31 g ai/ha; for pest or weed control at 125 g/ha: 125 g ai/ha
Method in brief: as §1

[4] = test system: barnyardgrass (Echinochloa crus-galli); experiment: as above; conditions: Echinochloa crus-galli, pre-emergence, 240 h, 0 is no effect, 100 is complete control, read-out: Plant response rating (0 to 100 scale), Barnyardgrass; for pest or weed control at 31 g/ha: 31 g ai/ha; for pest or weed control at 125 g/ha: 125 g ai/ha
Method in brief: as §1

[5] = test system: pigweed (Amaranthus retroflexus); experiment: as above; conditions: Amaranthus retroflexus, pre-emergence, 240 h, 0 is no effect, 100 is complete control, read-out: Plant response rating (0 to 100 scale), Pigweed; for pest or weed control at 31 g/ha: 31 g ai/ha; for pest or weed control at 125 g/ha: 125 g ai/ha
Method in brief: as §1

[6] = test system: ryegrass, It. (Italian ryegrass, Lolium multiflorum); experiment: as above; conditions: Lolium multiflorum, pre-emergence, 240 h, 0 is no effect, 100 is complete control, read-out: Plant response rating (0 to 100 scale), Ryegrass, It.; for pest or weed control at 31 g/ha: 31 g ai/ha; for pest or weed control at 125 g/ha: 125 g ai/ha
Method in brief: as §1

[7] = test system: ducksalad (Heteranthera limosa); experiment: Test B flooded paddy test, visual rating; conditions: Heteranthera limosa, 360 h; Flood, 250 g ai/ha, applied to paddy water, rated after 13 to 15 d; read-out: Ducksalad plant response rating (0 to 100 scale, 0 is no effect, 100 is complete control)
Method in brief: (§2)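 Plants at the 2-leaf stage were flooded to 3 cm above soil, and test compounds were applied directly into the paddy water, which was held at that depth throughout. After 13 to 15 d in a greenhouse, injury was rated visually against untreated controls on a 0–100 scale (0 no effect, 100 complete control).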

[8] = test system: barnyardgrass (Echinochloa crus-galli); experiment: Test B flooded paddy test, visual rating; conditions: Echinochloa crus-galli, 360 h; Flood, 250 g ai/ha, applied to paddy water, rated after 13 to 15 d; read-out: Barnyardgrass plant response rating (0 to 100 scale, 0 is no effect, 100 is complete control)
Method in brief: as §2

rice (Oryza sativa) = experiment: Test B flooded paddy test, visual rating; conditions: Oryza sativa, 360 h; Flood, 250 g ai/ha, applied to paddy water, rated after 13 to 15 d; read-out: Rice plant response rating (0 to 100 scale, 0 is no effect, 100 is complete control)
Method in brief: as §2

[9] = test system: ragweed (common ragweed, Ambrosia elatior); experiment: Test A postemergence application, visual injury rating; conditions: for Plant response rating (0 to 100 scale), Ragweed: 31 g ai/ha, 0 is no effect, 100 is complete control; for pest or weed control at 125 g/ha: Ambrosia artemisiifolia, post-emergence, 240 h, 125 g ai/ha, 0 to 100 scale, 0 no effect, 100 complete control, read-out: Ragweed plant response rating
Method in brief: as §1

[10] = test system: galium (catchweed bedstraw, Galium aparine); experiment: as above; conditions: for Plant response rating (0 to 100 scale), Galium: 31 g ai/ha, 0 is no effect, 100 is complete control; for pest or weed control at 125 g/ha: Galium, post-emergence, 240 h, 125 g ai/ha, 0 to 100 scale, 0 no effect, 100 complete control, read-out: Galium plant response rating
Method in brief: as §1

kochia (Kochia scoparia) [11] = experiment: as above; conditions: for Plant response rating (0 to 100 scale), Kochia: 31 g ai/ha, 0 is no effect, 100 is complete control; for pest or weed control at 125 g/ha: Bassia scoparia, post-emergence, 240 h, 125 g ai/ha, 0 to 100 scale, 0 no effect, 100 complete control, read-out: Kochia plant response rating
Method in brief: as §1

[12] = test system: foxtail, giant (giant foxtail, Setaria faberii); experiment: as above; conditions: for Plant response rating (0 to 100 scale), Foxtail, Giant: 31 g ai/ha, 0 is no effect, 100 is complete control; for pest or weed control at 125 g/ha: Setaria faberi, post-emergence, 240 h, 125 g ai/ha, 0 to 100 scale, 0 no effect, 100 complete control, read-out: Foxtail, Giant plant response rating
Method in brief: as §1

[13] = test system: barnyardgrass (Echinochloa crus-galli); experiment: as above; conditions: Echinochloa crus-galli, post-emergence, 240 h, 0 to 100 scale, 0 no effect, 100 complete control, read-out: Barnyardgrass plant response rating; for pest or weed control at 31 g/ha: 31 g ai/ha; for pest or weed control at 125 g/ha: 125 g ai/ha
Method in brief: as §1

corn (Zea mays) = experiment: as above; conditions: for Plant response rating (0 to 100 scale), Corn: 31 g ai/ha, 0 is no effect, 100 is complete control; for plant injury at 125 g/ha: Zea mays, post-emergence, 240 h, 125 g ai/ha, 0 to 100 scale, 0 no effect, 100 complete control, read-out: Corn plant response rating
Method in brief: as §1

[14] = test system: pigweed (Amaranthus retroflexus); experiment: as above; conditions: for Plant response rating (0 to 100 scale), Pigweed: 31 g ai/ha, 0 is no effect, 100 is complete control; for pest or weed control at 125 g/ha: Amaranthus retroflexus, post-emergence, 240 h, 125 g ai/ha, 0 to 100 scale, 0 no effect, 100 complete control, read-out: Pigweed plant response rating
Method in brief: as §1

[15] = test system: blackgrass (Alopecurus myosuroides); experiment: as above; conditions: Alopecurus myosuroides, post-emergence, 240 h, 0 to 100 scale, 0 no effect, 100 complete control, read-out: Blackgrass plant response rating; for pest or weed control at 31 g/ha: 31 g ai/ha; for pest or weed control at 125 g/ha: 125 g ai/ha
Method in brief: as §1

[16] = test system: wheat (Triticum aestivum); experiment: as above; conditions: for Plant response rating (0 to 100 scale), Wheat: 31 g ai/ha, 0 is no effect, 100 is complete control; for plant injury at 125 g/ha: Triticum aestivum, post-emergence, 240 h, 125 g ai/ha, 0 to 100 scale, 0 no effect, 100 complete control, read-out: Wheat plant response rating
Method in brief: as §1

[17] = test system: ryegrass, It. (Italian ryegrass, Lolium multiflorum); experiment: as above; conditions: for Plant response rating (0 to 100 scale), Ryegrass, It.: 31 g ai/ha, 0 is no effect, 100 is complete control; for pest or weed control at 125 g/ha: Lolium multiflorum, post-emergence, 240 h, 125 g ai/ha, 0 to 100 scale, 0 no effect, 100 complete control, read-out: Ryegrass, It. plant response rating
Method in brief: as §1

SMILES	pest or weed control at 31 g/ha [1]	pest or weed control at 125 g/ha [1]	pest or weed control at 31 g/ha (kochia (Kochia scoparia) [2])	pest or weed control at 125 g/ha (kochia (Kochia scoparia) [2])	pest or weed control at 31 g/ha [3]	pest or weed control at 125 g/ha [3]	pest or weed control at 31 g/ha [4]	pest or weed control at 125 g/ha [4]	pest or weed control at 31 g/ha [5]	pest or weed control at 125 g/ha [5]	pest or weed control at 31 g/ha [6]	pest or weed control at 125 g/ha [6]	pest or weed control at 250 g/ha [7]	pest or weed control at 250 g/ha [8]	plant injury at 250 g/ha (rice (Oryza sativa))	Plant response rating (0 to 100 scale), Ragweed [9]	pest or weed control at 125 g/ha [9]	Plant response rating (0 to 100 scale), Galium [10]	pest or weed control at 125 g/ha [10]	Plant response rating (0 to 100 scale), Kochia (kochia (Kochia scoparia) [11])	also measured
Cc1nn(C)c(=O)c(-c2ccc(F)c3ccoc23)c1O [Compound 68, 4-(4-fluoro-7-benzofuranyl)-5-hydroxy-2,6-dimethyl-3(2H)-pyridazinone]	30%	50%	30%	60%	0%	20%	0%	20%	0%	80%	20%	80%	0%	0%	0%	0	10%	60	90%	20	pest or weed control at 125 g/ha (kochia (Kochia scoparia) [11]): 90%; Plant response rating (0 to 100 scale), Foxtail, Giant [12]: 0; pest or weed control at 125 g/ha [12]: 20%; pest or weed control at 31 g/ha [13]: 0%; pest or weed control at 125 g/ha [13]: 10%; Plant response rating (0 to 100 scale), Corn (corn (Zea mays)): 0; plant injury at 125 g/ha (corn (Zea mays)): 0%; Plant response rating (0 to 100 scale), Pigweed [14]: 0; pest or weed control at 125 g/ha [14]: 20%; pest or weed control at 31 g/ha [15]: 0%; pest or weed control at 125 g/ha [15]: 60%; Plant response rating (0 to 100 scale), Wheat [16]: 0; plant injury at 125 g/ha [16]: 0%; Plant response rating (0 to 100 scale), Ryegrass, It. [17]: 80; pest or weed control at 125 g/ha [17]: 90%
COc1c(C)nn(C)c(=O)c1-c1ccc(F)c2ccoc12 [Compound 69, 4-(4-fluoro-7-benzofuranyl)-5-methoxy-2,6-dimethyl-3(2H)-pyridazinone]	0%	0%	0%	0%	0%	0%	0%	0%	0%	0%	0%	0%	0%	0%	0%	0	0%	0	0%	0	pest or weed control at 125 g/ha (kochia (Kochia scoparia) [11]): 0%; Plant response rating (0 to 100 scale), Foxtail, Giant [12]: 0; pest or weed control at 125 g/ha [12]: 0%; pest or weed control at 31 g/ha [13]: 0%; pest or weed control at 125 g/ha [13]: 0%; Plant response rating (0 to 100 scale), Corn (corn (Zea mays)): 0; plant injury at 125 g/ha (corn (Zea mays)): 0%; Plant response rating (0 to 100 scale), Pigweed [14]: 0; pest or weed control at 125 g/ha [14]: 0%; pest or weed control at 31 g/ha [15]: 0%; pest or weed control at 125 g/ha [15]: 0%; Plant response rating (0 to 100 scale), Wheat [16]: 0; plant injury at 125 g/ha [16]: 0%; Plant response rating (0 to 100 scale), Ryegrass, It. [17]: 0; pest or weed control at 125 g/ha [17]: 0%
